Reference: ChEMBL document CHEMBL1137324, “Novel selective orally active CRTH2 antagonists for allergic inflammation developed from in silico derived hits” (J Med Chem, 2006)
≈ marks a conversion by molar mass, not a printed value. Calls of active or inactive are those of the source. The rule behind the calls is not given here.

How the values were obtained:
[1] = target: Prostaglandin D2 receptor 2 (Mus musculus, UniProt Q9Z2J6); assay: Inhibition of mouse CRTH2 receptor
[2] = Aqueous solubility in PBS at pH 7.4; type: physicochemical
[3] = Permeability from apical to basolateral side of Caco-2 cells; type: ADME, cell-based; conditions: human, read-out: permeability
[4] = Permeability from basolateral to apical side of Caco-2 cells; type: ADME, cell-based; conditions: human, read-out: permeability
Homo sapiens = organism: Homo sapiens; assay: Stability in human liver S9 fraction; type: ADME
Mus musculus [5] = assay: Inhibition of goblet cell hyperplasia in BALB/c mouse at 5 mg/kg, po relative to control; type: functional, organism-based; set-up: dose 5 mg/kg
[6] = target: T1, Prostaglandin D2 receptor 2 (Homo sapiens, UniProt Q9Y5Y4); assay: Displacement of [3H]PGD2 from human CRTH2 receptor expressed in HEK293 cells; type: cell-based
T1 sequence (Q9Y5Y4 whole entry): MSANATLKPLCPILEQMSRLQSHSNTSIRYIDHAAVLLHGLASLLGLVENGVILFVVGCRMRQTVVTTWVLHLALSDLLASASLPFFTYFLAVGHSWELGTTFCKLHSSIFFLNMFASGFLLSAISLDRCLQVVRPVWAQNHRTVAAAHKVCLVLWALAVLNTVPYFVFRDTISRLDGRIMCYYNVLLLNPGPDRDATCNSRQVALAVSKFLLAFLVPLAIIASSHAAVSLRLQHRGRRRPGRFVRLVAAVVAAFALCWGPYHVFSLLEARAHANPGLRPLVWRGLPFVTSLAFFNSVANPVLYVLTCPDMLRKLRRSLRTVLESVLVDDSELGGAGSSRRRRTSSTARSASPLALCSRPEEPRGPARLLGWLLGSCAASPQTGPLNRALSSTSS

[7] = target: T1, Prostaglandin D2 receptor 2; assay: Antagonist activity against CRTH2 receptor measured as inhibition of PGD2-induced beta-arrestin translocation in HEK293 cells by BRET assay; type: functional, cell-based
[8] = target: Prostaglandin G/H synthase 2 (Homo sapiens) (UniProt P35354); assay: Inhibition of COX2 at 10 uM
Sequence of Prostaglandin G/H synthase 2 (Homo sapiens) (P35354 whole entry): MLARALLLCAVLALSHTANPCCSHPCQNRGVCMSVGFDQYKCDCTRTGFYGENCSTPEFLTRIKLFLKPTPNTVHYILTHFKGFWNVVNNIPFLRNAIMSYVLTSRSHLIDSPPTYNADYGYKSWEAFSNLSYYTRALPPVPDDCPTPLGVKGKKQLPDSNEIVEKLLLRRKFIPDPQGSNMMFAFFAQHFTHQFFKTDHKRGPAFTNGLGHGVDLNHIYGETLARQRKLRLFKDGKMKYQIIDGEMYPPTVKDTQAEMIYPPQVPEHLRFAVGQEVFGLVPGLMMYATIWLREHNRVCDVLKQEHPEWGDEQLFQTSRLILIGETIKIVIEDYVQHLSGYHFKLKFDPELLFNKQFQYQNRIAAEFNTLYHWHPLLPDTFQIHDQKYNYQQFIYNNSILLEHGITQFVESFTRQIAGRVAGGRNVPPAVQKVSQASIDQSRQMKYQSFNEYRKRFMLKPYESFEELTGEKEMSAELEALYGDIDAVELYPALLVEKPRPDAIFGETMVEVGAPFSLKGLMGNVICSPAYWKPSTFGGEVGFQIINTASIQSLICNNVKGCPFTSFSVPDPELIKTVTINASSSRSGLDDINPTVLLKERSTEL

[9] = target: Polyunsaturated fatty acid lipoxygenase ALOX15 (Homo sapiens) (UniProt P16050); assay: Inhibition of 15-LO at 10 uM
Sequence of Polyunsaturated fatty acid lipoxygenase ALOX15 (Homo sapiens) (P16050 whole entry): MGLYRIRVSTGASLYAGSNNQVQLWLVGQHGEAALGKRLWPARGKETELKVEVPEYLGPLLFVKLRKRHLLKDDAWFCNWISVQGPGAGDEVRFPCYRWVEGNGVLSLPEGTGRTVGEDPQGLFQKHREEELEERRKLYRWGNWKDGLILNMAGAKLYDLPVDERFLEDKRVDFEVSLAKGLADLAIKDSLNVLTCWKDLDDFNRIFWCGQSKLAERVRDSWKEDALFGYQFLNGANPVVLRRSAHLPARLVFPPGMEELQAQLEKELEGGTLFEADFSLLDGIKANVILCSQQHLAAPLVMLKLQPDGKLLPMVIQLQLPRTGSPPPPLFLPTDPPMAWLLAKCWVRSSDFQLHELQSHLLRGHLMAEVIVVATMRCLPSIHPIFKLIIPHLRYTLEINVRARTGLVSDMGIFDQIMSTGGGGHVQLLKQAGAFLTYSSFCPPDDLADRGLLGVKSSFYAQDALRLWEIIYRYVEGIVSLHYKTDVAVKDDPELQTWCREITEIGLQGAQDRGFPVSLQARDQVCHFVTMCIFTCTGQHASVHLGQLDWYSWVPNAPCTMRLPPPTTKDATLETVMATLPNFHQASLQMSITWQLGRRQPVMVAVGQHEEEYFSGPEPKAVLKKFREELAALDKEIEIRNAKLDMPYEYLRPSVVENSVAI

[10] = target: Type-1 angiotensin II receptor (Homo sapiens) (UniProt P30556); assay: Inhibition of AT1
Sequence of Type-1 angiotensin II receptor (Homo sapiens) (P30556 whole entry): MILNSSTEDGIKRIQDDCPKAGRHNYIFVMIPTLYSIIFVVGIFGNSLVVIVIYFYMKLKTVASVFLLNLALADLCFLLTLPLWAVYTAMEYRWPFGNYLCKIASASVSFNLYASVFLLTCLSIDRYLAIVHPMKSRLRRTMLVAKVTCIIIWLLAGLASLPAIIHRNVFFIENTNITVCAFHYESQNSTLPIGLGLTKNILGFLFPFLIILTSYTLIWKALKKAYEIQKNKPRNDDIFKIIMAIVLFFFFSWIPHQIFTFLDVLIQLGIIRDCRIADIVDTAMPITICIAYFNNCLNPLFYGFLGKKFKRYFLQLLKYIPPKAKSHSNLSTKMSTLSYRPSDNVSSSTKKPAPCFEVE

[11] = target: Type-2 angiotensin II receptor (Homo sapiens) (UniProt P50052); assay: Inhibition of AT2
Sequence of Type-2 angiotensin II receptor (Homo sapiens) (P50052 whole entry): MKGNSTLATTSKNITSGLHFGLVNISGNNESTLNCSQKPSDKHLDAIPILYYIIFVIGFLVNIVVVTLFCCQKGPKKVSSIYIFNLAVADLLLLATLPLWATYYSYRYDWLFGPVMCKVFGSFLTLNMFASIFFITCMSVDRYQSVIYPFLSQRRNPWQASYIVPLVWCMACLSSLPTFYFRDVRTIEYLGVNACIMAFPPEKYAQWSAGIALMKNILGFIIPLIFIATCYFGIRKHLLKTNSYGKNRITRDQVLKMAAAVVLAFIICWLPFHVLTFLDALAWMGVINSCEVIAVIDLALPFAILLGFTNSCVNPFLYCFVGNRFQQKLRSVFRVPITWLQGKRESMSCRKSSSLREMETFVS

Mus musculus [12] = assay: Inhibition of peribronchial eosinophilia in BALB/c mouse at 100 mg/kg, po relative to control; type: functional
Mus musculus [13] = assay: Inhibition of peribronchial eosinophilia in BALB/c mouse at 30 mg/kg, po relative to control; type: functional
[14] = target: Adenosine receptor A1 (Homo sapiens) (UniProt P30542); assay: Inhibition of human A1 receptor at 10 uM
[15] = target: Adenosine receptor A2a (Homo sapiens) (UniProt P29274); assay: Inhibition of human A2A receptor at 10 uM
[16] = target: Adrenergic receptor alpha-1 (Homo sapiens) (UniProt P35348+P25100+P35368); assay: Inhibition of alpha1 receptor at 10 uM; type: protein assay
[17] = target: Adrenergic receptor alpha-2 (Homo sapiens) (UniProt P08913+P18825+P18089); assay: Inhibition of alpha-2 receptor at 10 uM; type: protein assay
[18] = target: Beta-1 adrenergic receptor (Homo sapiens) (UniProt P08588); assay: Inhibition of human beta-1 receptor at 10 uM
[19] = target: Type-1 angiotensin II receptor (Homo sapiens) (UniProt P30556); assay: Inhibition of human AT1 receptor at 10 uM
[20] = target: Type-2 angiotensin II receptor (Homo sapiens) (UniProt P50052); assay: Inhibition of human AT2 receptor at 10 uM
[21] = target: C5a anaphylatoxin chemotactic receptor 1 (Homo sapiens) (UniProt P21730); assay: Inhibition of human C5a receptor at 10 uM
Sequence of C5a anaphylatoxin chemotactic receptor 1 (Homo sapiens) (P21730 whole entry): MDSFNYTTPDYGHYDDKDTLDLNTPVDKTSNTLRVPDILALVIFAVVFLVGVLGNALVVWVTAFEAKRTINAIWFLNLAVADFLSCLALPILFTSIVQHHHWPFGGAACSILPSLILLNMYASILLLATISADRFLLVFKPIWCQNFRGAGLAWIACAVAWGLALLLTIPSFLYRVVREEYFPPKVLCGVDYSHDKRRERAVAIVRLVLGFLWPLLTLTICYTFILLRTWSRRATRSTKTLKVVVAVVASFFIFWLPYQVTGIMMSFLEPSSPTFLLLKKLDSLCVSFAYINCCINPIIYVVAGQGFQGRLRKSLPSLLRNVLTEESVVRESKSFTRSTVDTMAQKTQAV

[22] = target: Chemerin-like receptor 1 (Homo sapiens) (UniProt Q99788); assay: Inhibition of ChemR23 receptor at 10 uM
Sequence of Chemerin-like receptor 1 (Homo sapiens) (Q99788 whole entry): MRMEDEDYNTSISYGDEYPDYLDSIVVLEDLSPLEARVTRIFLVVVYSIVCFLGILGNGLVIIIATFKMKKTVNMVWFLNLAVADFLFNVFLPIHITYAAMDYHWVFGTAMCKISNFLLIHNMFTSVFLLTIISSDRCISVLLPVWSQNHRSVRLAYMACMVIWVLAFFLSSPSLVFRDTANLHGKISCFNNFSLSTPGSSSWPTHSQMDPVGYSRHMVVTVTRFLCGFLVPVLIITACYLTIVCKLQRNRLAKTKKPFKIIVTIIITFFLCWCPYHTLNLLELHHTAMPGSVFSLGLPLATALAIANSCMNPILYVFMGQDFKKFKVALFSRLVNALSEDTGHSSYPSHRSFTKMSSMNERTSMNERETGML

[23] = target: D(2) dopamine receptor (Homo sapiens) (UniProt P14416); assay: Inhibition of human D2S receptor at 10 uM
[24] = target: Prostaglandin D2 receptor (Homo sapiens) (UniProt Q13258); assay: Inhibition of human DP receptor at 10 uM
[25] = target: Endothelin-1 receptor (Homo sapiens) (UniProt P25101); assay: Inhibition of human ETA receptor at 10 uM
[26] = target: fMet-Leu-Phe receptor (Homo sapiens) (UniProt P21462); assay: Inhibition of human fMLP receptor at 10 uM
Sequence of fMet-Leu-Phe receptor (Homo sapiens) (P21462 whole entry): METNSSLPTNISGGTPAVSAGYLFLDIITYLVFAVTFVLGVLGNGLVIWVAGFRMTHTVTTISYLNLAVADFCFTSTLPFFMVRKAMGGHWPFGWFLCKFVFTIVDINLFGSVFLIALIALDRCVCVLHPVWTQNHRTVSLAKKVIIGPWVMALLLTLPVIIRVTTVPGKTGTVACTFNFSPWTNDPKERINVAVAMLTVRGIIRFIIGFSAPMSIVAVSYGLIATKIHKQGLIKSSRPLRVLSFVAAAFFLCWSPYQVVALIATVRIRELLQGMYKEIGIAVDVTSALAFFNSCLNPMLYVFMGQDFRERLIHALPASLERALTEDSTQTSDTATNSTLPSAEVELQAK

[27] = target: T2, Glutamate [NMDA] receptor (Homo sapiens) (UniProt Q05586+Q12879+Q13224+O15399+O60391+Q14957+Q8TCU5); assay: Inhibition of human NMDA receptor at 10 uM; type: protein-complex assay
[28] = target: Gastric inhibitory polypeptide receptor (Homo sapiens) (UniProt P48546); assay: Inhibition of GIP receptor at 10 uM
[29] = target: Histamine H1 receptor (Homo sapiens) (UniProt P35367); assay: Inhibition of human H1 receptor at 10 uM
[30] = target: Histamine H2 receptor (Homo sapiens) (UniProt P25021); assay: Inhibition of human H2 receptor at 10 uM
Sequence of Histamine H2 receptor (Homo sapiens) (P25021 whole entry): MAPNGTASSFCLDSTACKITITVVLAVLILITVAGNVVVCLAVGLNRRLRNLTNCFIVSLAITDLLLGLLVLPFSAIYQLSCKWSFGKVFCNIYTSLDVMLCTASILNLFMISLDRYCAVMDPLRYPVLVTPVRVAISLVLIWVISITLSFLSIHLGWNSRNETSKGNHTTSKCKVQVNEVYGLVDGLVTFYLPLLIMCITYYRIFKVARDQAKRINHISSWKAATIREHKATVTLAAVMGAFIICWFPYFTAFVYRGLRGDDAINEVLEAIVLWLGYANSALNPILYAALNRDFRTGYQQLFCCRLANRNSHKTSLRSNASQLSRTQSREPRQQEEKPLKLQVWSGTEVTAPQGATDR

[31] = target: Cysteinyl leukotriene receptor 1 (Homo sapiens) (UniProt Q9Y271); assay: Inhibition of human LTD4 receptor at 10 uM
[32] = target: Melanin-concentrating hormone receptor 1 (Homo sapiens) (UniProt Q99705); assay: Inhibition of human MCH1 receptor at 10 uM
Sequence of Melanin-concentrating hormone receptor 1 (Homo sapiens) (Q99705 whole entry): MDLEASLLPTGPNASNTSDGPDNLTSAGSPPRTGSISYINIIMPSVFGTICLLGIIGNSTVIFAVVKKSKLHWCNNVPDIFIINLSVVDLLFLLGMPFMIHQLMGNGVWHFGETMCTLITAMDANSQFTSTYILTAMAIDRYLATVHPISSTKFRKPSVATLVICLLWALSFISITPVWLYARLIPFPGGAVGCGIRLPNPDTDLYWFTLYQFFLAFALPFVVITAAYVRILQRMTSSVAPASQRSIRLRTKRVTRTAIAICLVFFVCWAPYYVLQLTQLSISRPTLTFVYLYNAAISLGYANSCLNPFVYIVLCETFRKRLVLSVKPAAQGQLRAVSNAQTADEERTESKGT

[33] = target: Opioid receptors; mu/kappa/delta (Homo sapiens) (UniProt P41145+P41143+P35372); assay: Inhibition of opiate receptor at 10 uM; type: protein assay
[34] = target: Platelet-activating factor receptor (Homo sapiens) (UniProt P25105); assay: Inhibition of human PAF receptor at 10 uM
[35] = target: T2, Glutamate [NMDA] receptor (Homo sapiens); assay: Inhibition of human PCP receptor at 10 uM; type: protein-complex assay
[36] = target: Thromboxane A2 receptor (Homo sapiens) (UniProt P21731); assay: Inhibition of human TXA2 receptor at 10 uM
Sequence of Thromboxane A2 receptor (Homo sapiens) (P21731 whole entry): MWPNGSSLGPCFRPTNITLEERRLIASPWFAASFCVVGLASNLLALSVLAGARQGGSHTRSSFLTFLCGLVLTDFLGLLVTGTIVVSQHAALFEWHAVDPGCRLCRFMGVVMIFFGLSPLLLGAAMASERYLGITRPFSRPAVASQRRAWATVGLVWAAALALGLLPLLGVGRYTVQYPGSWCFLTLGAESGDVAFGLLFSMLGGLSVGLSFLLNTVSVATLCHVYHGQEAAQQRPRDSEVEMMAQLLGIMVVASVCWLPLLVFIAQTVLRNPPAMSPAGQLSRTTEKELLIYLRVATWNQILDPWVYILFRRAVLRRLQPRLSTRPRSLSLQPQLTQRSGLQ

[37] = target: Serotonin (5-HT) receptor (Homo sapiens) (UniProt P30939+P41595+Q13639+P28222+P46098+P08908+P28221+P28223+P28335+P28566+P34969+P50406+P47898+A5X5Y0+O95264+Q70Z44+Q8WXA8); assay: Inhibition of 5-HT receptor at 10 uM; type: protein assay
[38] = target: Glucocorticoid receptor (Homo sapiens) (UniProt P04150); assay: Inhibition of human glucocorticoid receptor at 10 uM
[39] = target: Vasopressin V1a receptor (Homo sapiens) (UniProt P37288); assay: Inhibition of human V1a receptor at 10 uM
Sequence of Vasopressin V1a receptor (Homo sapiens) (P37288 whole entry, looked up): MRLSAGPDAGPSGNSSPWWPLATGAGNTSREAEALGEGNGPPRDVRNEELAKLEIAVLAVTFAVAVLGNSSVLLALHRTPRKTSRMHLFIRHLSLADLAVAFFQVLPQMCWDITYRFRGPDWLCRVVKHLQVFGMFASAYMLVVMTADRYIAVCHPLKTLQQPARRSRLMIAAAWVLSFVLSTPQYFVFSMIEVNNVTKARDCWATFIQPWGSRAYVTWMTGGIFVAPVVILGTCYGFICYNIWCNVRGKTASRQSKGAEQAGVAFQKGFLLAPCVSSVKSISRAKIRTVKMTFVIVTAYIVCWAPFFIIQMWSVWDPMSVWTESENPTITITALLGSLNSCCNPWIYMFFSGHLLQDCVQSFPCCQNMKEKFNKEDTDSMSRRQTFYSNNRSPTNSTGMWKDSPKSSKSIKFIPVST

[40] = target: Sodium-dependent noradrenaline transporter (Homo sapiens) (UniProt P23975); assay: Inhibition of human NE transporter at 10 uM
[41] = target: Sodium-dependent dopamine transporter (Homo sapiens) (UniProt Q01959); assay: Inhibition of human DA transporter at 10 uM
[42] = target: Sodium-dependent serotonin transporter (Homo sapiens) (UniProt P31645); assay: Inhibition of human 5-HT transporter at 10 uM

Sequence of Prostaglandin D2 receptor 2 (Mus musculus, UniProt Q9Z2J6) (Q9Z2J6 whole entry): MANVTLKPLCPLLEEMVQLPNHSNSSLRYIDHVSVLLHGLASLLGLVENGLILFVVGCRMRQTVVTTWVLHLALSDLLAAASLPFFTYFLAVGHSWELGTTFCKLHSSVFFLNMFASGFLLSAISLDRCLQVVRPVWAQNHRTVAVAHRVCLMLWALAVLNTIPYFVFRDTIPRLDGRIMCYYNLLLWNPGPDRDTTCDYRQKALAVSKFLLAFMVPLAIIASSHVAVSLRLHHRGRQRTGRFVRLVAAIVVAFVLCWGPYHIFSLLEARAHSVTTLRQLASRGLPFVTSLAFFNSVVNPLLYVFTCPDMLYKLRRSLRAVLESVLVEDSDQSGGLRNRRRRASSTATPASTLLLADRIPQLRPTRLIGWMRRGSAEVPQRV

Compound O=C(O)COc1ccc(Br)cc1C(=O)c1cnn(-c2ccccc2)c1 has an IC50 [1] of 3.2 nM, a solubility [2] of 200 µM (≈ 80.2 µg/mL) and a Papp A→B [3] of 8.7 ×10⁻⁶ cm/s. For the same compound, the Papp B→A [4] was 13 ×10⁻⁶ cm/s, the Stability (Homo sapiens) was 93% and the Activity (Mus musculus [5]) was “Active”. For the same compound, the IC50 [6] was 1.5 nM, the IC50 [7] was 24 nM and the inhibition [8] was < 20%. For the same compound, the inhibition [9] was < 20%, the Activity [10] was “inactive” and the Activity [11] was “inactive”. The inhibition in vivo at 100 mg/kg (Mus musculus [12]) was 55%, the inhibition in vivo at 30 mg/kg (Mus musculus [13]) was 62% and the inhibition [14] was < 30%. The inhibition [15] was < 30%, the inhibition [16] was < 30% and the inhibition [17] was < 30%. The inhibition [18] was < 30%, the inhibition [19] was < 30% and the inhibition [20] was < 30%. For the same compound, the inhibition [21] was < 30%, the inhibition [22] was < 30% and the inhibition [23] was < 30%. The inhibition [24] was < 30%, the inhibition [25] was < 30% and the inhibition [26] was < 30%. For the same compound, the inhibition [27] was < 30%, the inhibition [28] was < 30% and the inhibition [29] was < 30%. For the same compound, the inhibition [30] was < 30%, the inhibition [31] was < 30% and the inhibition [32] was < 30%. The inhibition [33] was < 30%, the inhibition [34] was < 30% and the inhibition [35] was < 30%. The inhibition [36] was < 30%, the inhibition [37] was < 30% and the inhibition [38] was < 30%. For the same compound, the inhibition [39] was < 30%, the inhibition [40] was < 30% and the inhibition [41] was < 30%. The inhibition [42] was < 30%.
